Measurements taken from patent publication US5726165A, “Derivatives of 4-(2-aminoethyl)phenoxymethyl-phosphonic and -phosphinic acid and pharmaceutical and veterinary uses therefor” (SmithKline Beecham p.l.c., priority 1994, dated 1998).
Where a name gives a salt, the structure may show the parent alone.

Experiments:
[1] = biological target: T1, human β1-adrenoceptor (Homo sapiens, UniProt P08588); test: Antagonist binding at β1-adrenoceptors, displacement of [125I]-iodocyanopindolol; settings: CHO cell plasma membranes; from binding IC50 by Cheng-Prusoff equation; read-out: Beta-1 Ki
T1 construct: expressed in transfected cells; host or cells: CHO cells (stably transfected subclones; membranes)
T1 sequence (P08588 whole entry): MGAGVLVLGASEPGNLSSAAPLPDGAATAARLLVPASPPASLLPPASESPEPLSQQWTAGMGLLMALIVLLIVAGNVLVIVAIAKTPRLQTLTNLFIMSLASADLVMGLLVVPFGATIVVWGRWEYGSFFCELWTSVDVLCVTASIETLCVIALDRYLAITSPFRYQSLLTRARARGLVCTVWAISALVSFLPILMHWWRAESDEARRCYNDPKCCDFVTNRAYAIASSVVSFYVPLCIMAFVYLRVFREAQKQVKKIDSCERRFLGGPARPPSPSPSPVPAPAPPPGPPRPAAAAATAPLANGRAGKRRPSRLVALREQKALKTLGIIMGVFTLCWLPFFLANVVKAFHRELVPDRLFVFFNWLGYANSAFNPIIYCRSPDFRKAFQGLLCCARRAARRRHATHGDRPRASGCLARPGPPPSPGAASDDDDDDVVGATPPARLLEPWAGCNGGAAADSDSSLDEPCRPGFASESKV
Experimental: (§1) Antagonist and Agonist Activity at Human β1, β2, and β3 -Adrenoceptors.
(§2) Subclones of CHO cells are stably transfected with each of the human β1, β2 and β3 -adrenoceptors^1. Cells are then disrupted by immersion in ice-cold lysis buffer (10 mM TRIS, 2 mM EDTA, pH 7.4) containing protease inhibitors leupeptin and benzamidine (5 μg/ml) and soyabean trypsin inhibitor (10 μg/ml). Membranes are prepared by the method of Bouvier el. al.^2 and stored in 1 ml aliquots in liquid N2 for future use.
(§3) Antagonist Binding at β1, and β2 -Adrenoceptors
(§4) Displacement of [^125 I]-iodocyanopindolol from CHO cell plasma membranes transfected with either the human β1, or β2 -adrenoceptors is carried out by the method of Blin et. al.^5. Ki values (nM) are calculated from the binding IC50 values for each agonist, using the Cheng-Prusoff equation.

[2] = biological target: T2, human β2-adrenoceptor (Homo sapiens, UniProt P07550); test: Antagonist binding at β2-adrenoceptors, displacement of [125I]-iodocyanopindolol; settings: CHO cell plasma membranes; from binding IC50 by Cheng-Prusoff equation; read-out: Beta-2 Ki
T2 construct: expressed in transfected cells; host or cells: CHO cells (stably transfected subclones; membranes)
T2 sequence (P07550 whole entry): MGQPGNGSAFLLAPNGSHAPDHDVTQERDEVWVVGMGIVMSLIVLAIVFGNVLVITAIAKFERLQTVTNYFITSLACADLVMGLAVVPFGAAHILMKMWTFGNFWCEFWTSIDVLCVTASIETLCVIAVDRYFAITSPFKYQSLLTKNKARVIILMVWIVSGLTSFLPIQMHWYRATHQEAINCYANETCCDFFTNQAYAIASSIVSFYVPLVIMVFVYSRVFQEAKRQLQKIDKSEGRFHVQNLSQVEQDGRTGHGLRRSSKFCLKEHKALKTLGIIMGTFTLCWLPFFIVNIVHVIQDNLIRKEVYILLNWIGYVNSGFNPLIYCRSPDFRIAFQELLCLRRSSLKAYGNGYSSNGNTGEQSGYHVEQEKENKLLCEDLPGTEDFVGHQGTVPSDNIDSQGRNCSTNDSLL
Experimental: as §1, §2, §3, §4

[3] = biological target: T3, human β3-adrenoceptor (Homo sapiens, UniProt P13945); test: β3-adrenoceptor-mediated adenylyl cyclase activity (agonist); format: biochemical; settings: CHO cell plasma membranes; for EC50: agonist concentration producing 50% activation of adenylyl cyclase, cAMP over 20 minutes, read-out: Beta-3 EC50; for Emax: maximum response relative to that produced by (-) isoprenaline, read-out: Beta-3 (IA), intrinsic activity
T3 construct: expressed in transfected cells; host or cells: CHO cells (stably transfected subclones; membranes)
T3 sequence (P13945 whole entry): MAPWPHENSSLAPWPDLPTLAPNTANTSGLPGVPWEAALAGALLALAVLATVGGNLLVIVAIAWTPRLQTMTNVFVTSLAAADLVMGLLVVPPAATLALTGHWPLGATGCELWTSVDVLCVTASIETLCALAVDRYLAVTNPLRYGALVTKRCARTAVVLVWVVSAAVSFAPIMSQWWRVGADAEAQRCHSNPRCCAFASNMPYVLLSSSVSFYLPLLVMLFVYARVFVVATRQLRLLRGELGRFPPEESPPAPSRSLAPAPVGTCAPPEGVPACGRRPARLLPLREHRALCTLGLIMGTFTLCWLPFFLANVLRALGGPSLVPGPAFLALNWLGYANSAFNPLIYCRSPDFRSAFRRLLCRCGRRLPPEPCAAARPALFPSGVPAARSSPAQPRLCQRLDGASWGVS
Experimental: as §1, §2
β3 -Adrenoceptor-Mediated Adenylyl Cyclase Activity
Adenylyl cyclase activity is assayed by the method of Kirkham et. al.^3 by the addition of 40 μl (70-80 μg protein) to the incubation medium of the above CHO cell plasma membranes transfected with the human β3 -adrenoceptor. cAMP produced over 20 minutes is separated from ATP by the method of Salomon et al.^4. Agonist EC50 values and intrinsic activities are expressed as the concentration of agonist producing 50% activation of adenylyl cyclase and the maximum response produced by each agonist relative to that produced by (-) isoprenaline respectively.

Structure (SMILES)	Ki [1] [µM]	Ki [2] [µM]	EC50 [3] [µM]	Emax [3] [%]
C[C@H](Cc1ccc(OCP(=O)(O)c2ccccc2)cc1)NC[C@H](O)COc1ccc(O)c(CO)c1 (racemic) [Example 21, (SR)-4-{2-[2-Hydroxy-3-(4-hydroxy-3-hydroxymethylphenoxy)propylamino]propyl}phenoxymethyl-phenylphosphinic acid, lithium salt]	155	15	1.26	> 100
C[C@H](Cc1ccc(OCP(=O)(O)OCCCOCc2ccccc2)cc1)NC[C@H](O)COc1ccc(O)c(CO)c1 [Example 17, (SR)-4-{2-[2-Hydroxy-3-(4-hydroxy-3-hydroxymethylphenoxy)propylamino]propyl}phenoxymethylphosphonic acid, (3-benzyloxypropyl)ester, lithium salt]	21	10	1.1	70
O=P(O)(COc1ccc(CCNC[C@H](O)COc2ccc(O)cc2)cc1)C1CCCCC1 [Example 29, (S)-4-{2-[2-Hydroxy-3-(4-hydroxyphenoxy)propylamino]ethyl}phenoxymethylcyclohexylphosphinic acid, lithium salt]	288	269	1.7	72
